Assay: excess molar enthalpy (molar enthalpy of mixing); xn = mol fraction of the nth substance listed
Settings: 298.15 K, 101 kPa, Liquid, Calvet calorimetry

Cc1ccccc1 [toluene] + CCCCCCC
Settings | excess molar enthalpy [kcal/mol]
x2 = 0.00901 | 0.0055
x2 = 0.02172 | 0.0136
x2 = 0.04198 | 0.0253
x2 = 0.06142 | 0.0359
x2 = 0.08009 | 0.0457
x2 = 0.09803 | 0.054
x2 = 0.1153 | 0.0621
x2 = 0.1319 | 0.0691
x2 = 0.1479 | 0.0758
x2 = 0.1633 | 0.0815
x2 = 0.1782 | 0.087
x2 = 0.1925 | 0.0918
x2 = 0.2064 | 0.09608
x2 = 0.2198 | 0.0999
x2 = 0.2327 | 0.1035
x2 = 0.2452 | 0.1071
x2 = 0.2574 | 0.1102
x2 = 0.2691 | 0.113
x2 = 0.2805 | 0.115
x2 = 0.2915 | 0.118
x2 = 0.3022 | 0.1197
x2 = 0.3125 | 0.1214
x2 = 0.3226 | 0.1233
x2 = 0.3324 | 0.1248
x2 = 0.3419 | 0.126
x2 = 0.3511 | 0.1272
x2 = 0.3601 | 0.1281
x2 = 0.3688 | 0.1291
x2 = 0.3773 | 0.13
x2 = 0.3856 | 0.1307
x2 = 0.3883 | 0.131
x2 = 0.3909 | 0.131
x2 = 0.3935 | 0.1312
x2 = 0.3961 | 0.1315
x2 = 0.3987 | 0.1317
x2 = 0.4012 | 0.1317
x2 = 0.4038 | 0.1319
x2 = 0.4063 | 0.1319
x2 = 0.4088 | 0.1322
x2 = 0.4112 | 0.1324
x2 = 0.4137 | 0.1324
x2 = 0.4161 | 0.1324
x2 = 0.4185 | 0.1326
x2 = 0.4209 | 0.1326
x2 = 0.4232 | 0.1329
x2 = 0.4256 | 0.1329
x2 = 0.4279 | 0.1329
x2 = 0.4302 | 0.1331
x2 = 0.4325 | 0.1331
x2 = 0.4348 | 0.1331
x2 = 0.4382 | 0.1331
x2 = 0.4415 | 0.1334
x2 = 0.4449 | 0.1334
x2 = 0.4481 | 0.1334
x2 = 0.4514 | 0.1334
x2 = 0.4546 | 0.1334
x2 = 0.4578 | 0.1334
x2 = 0.4609 | 0.1334
x2 = 0.464 | 0.1334
x2 = 0.4671 | 0.1334
x2 = 0.4701 | 0.1331
x2 = 0.4731 | 0.1331
x2 = 0.476 | 0.1331
x2 = 0.479 | 0.1331
x2 = 0.4819 | 0.1329
x2 = 0.4847 | 0.1329
x2 = 0.4875 | 0.1329
x2 = 0.4903 | 0.1326
x2 = 0.4931 | 0.1326
x2 = 0.4959 | 0.1324
x2 = 0.4995 | 0.1322
x2 = 0.503 | 0.1322
x2 = 0.5066 | 0.1319
x2 = 0.51 | 0.1319
x2 = 0.5134 | 0.1317
x2 = 0.5168 | 0.1315
x2 = 0.5202 | 0.1312
x2 = 0.5234 | 0.131
x2 = 0.5267 | 0.1307
x2 = 0.5299 | 0.1305
x2 = 0.533 | 0.1303
x2 = 0.5361 | 0.13
x2 = 0.5392 | 0.1298
x2 = 0.5422 | 0.1295
x2 = 0.5452 | 0.1293
x2 = 0.5482 | 0.1291
x2 = 0.5511 | 0.1288
x2 = 0.5539 | 0.1286
x2 = 0.5568 | 0.1283
x2 = 0.5589 | 0.1281
x2 = 0.5609 | 0.1279
x2 = 0.563 | 0.1276
x2 = 0.565 | 0.1274
x2 = 0.5671 | 0.1272
x2 = 0.5691 | 0.1269
x2 = 0.571 | 0.1267
x2 = 0.573 | 0.1264
x2 = 0.5749 | 0.1262
x2 = 0.5769 | 0.126
x2 = 0.5788 | 0.126
x2 = 0.5807 | 0.1257
x2 = 0.5826 | 0.1255
x2 = 0.5844 | 0.1252
x2 = 0.5863 | 0.125
x2 = 0.5881 | 0.1248
x2 = 0.5899 | 0.1245
x2 = 0.5917 | 0.1243
x2 = 0.5935 | 0.124
x2 = 0.5952 | 0.1238
x2 = 0.597 | 0.1236
x2 = 0.5987 | 0.1233
x2 = 0.6004 | 0.1231
x2 = 0.6021 | 0.1228
x2 = 0.6038 | 0.1226
x2 = 0.6055 | 0.1224
x2 = 0.6071 | 0.1221
x2 = 0.6088 | 0.1219
x2 = 0.6148 | 0.1212
x2 = 0.6209 | 0.12
x2 = 0.6271 | 0.119
x2 = 0.6335 | 0.118
x2 = 0.64 | 0.117
x2 = 0.6466 | 0.116
x2 = 0.6534 | 0.114
x2 = 0.6603 | 0.113
x2 = 0.6673 | 0.112
x2 = 0.6745 | 0.1102
x2 = 0.6819 | 0.1085
x2 = 0.6894 | 0.1068
x2 = 0.6971 | 0.1052
x2 = 0.705 | 0.1035
x2 = 0.713 | 0.1013
x2 = 0.7212 | 0.09943
x2 = 0.7297 | 0.09751
x2 = 0.7383 | 0.0951
x2 = 0.7471 | 0.0927
x2 = 0.7562 | 0.0903
x2 = 0.7623 | 0.0887
x2 = 0.7685 | 0.087
x2 = 0.7748 | 0.0851
x2 = 0.7812 | 0.0832
x2 = 0.7877 | 0.0813
x2 = 0.7943 | 0.0789
x2 = 0.801 | 0.077
x2 = 0.8079 | 0.0746
x2 = 0.8148 | 0.0724
x2 = 0.8219 | 0.0703
x2 = 0.8291 | 0.0679
x2 = 0.8365 | 0.0655
x2 = 0.8439 | 0.0629
x2 = 0.8515 | 0.0602
x2 = 0.8592 | 0.0574
x2 = 0.8671 | 0.0545
x2 = 0.8752 | 0.0516
x2 = 0.8833 | 0.0485
x2 = 0.8917 | 0.0452
x2 = 0.9002 | 0.0418
x2 = 0.9088 | 0.0385
x2 = 0.9176 | 0.0351
x2 = 0.9266 | 0.0315
x2 = 0.9358 | 0.0277
x2 = 0.9434 | 0.0246
x2 = 0.9511 | 0.0215
x2 = 0.9589 | 0.0184
x2 = 0.9668 | 0.0151
x2 = 0.9749 | 0.0115
x2 = 0.9831 | 0.00789
x2 = 0.9915 | 0.00382

NCCO [2-aminoethan-1-ol] + c1ccncc1
Settings | excess molar enthalpy [kcal/mol]
x2 = 0.00998 | 0.00765
x2 = 0.0187 | 0.0143
x2 = 0.02728 | 0.021
x2 = 0.0357 | 0.0272
x2 = 0.04398 | 0.0335
x2 = 0.05212 | 0.0394
x2 = 0.06012 | 0.0452
x2 = 0.06798 | 0.0509
x2 = 0.07572 | 0.0562
x2 = 0.08333 | 0.0614
x2 = 0.09081 | 0.0667
x2 = 0.09818 | 0.0715
x2 = 0.1054 | 0.0762
x2 = 0.1125 | 0.0808
x2 = 0.1196 | 0.0851
x2 = 0.1265 | 0.0894
x2 = 0.1333 | 0.093
x2 = 0.14 | 0.09656
x2 = 0.1466 | 0.1001
x2 = 0.153 | 0.1035
x2 = 0.1594 | 0.1066
x2 = 0.1657 | 0.1097
x2 = 0.1719 | 0.113
x2 = 0.1782 | 0.115
x2 = 0.1845 | 0.118
x2 = 0.1907 | 0.1212
x2 = 0.197 | 0.124
x2 = 0.2032 | 0.1267
x2 = 0.2095 | 0.1293
x2 = 0.2157 | 0.1319
x2 = 0.222 | 0.1343
x2 = 0.2282 | 0.137
x2 = 0.2345 | 0.1393
x2 = 0.2407 | 0.1417
x2 = 0.247 | 0.1439
x2 = 0.2532 | 0.1463
x2 = 0.2595 | 0.1484
x2 = 0.2657 | 0.1508
x2 = 0.272 | 0.153
x2 = 0.2782 | 0.1551
x2 = 0.2845 | 0.157
x2 = 0.2907 | 0.1592
x2 = 0.297 | 0.1611
x2 = 0.3032 | 0.163
x2 = 0.3095 | 0.1649
x2 = 0.3157 | 0.1668
x2 = 0.322 | 0.1687
x2 = 0.3282 | 0.1704
x2 = 0.3345 | 0.1723
x2 = 0.3407 | 0.174
x2 = 0.347 | 0.1757
x2 = 0.3532 | 0.1773
x2 = 0.3595 | 0.179
x2 = 0.3621 | 0.1797
x2 = 0.3652 | 0.1804
x2 = 0.3684 | 0.1812
x2 = 0.3716 | 0.1821
x2 = 0.3748 | 0.1828
x2 = 0.3781 | 0.1836
x2 = 0.3815 | 0.1845
x2 = 0.385 | 0.1852
x2 = 0.3885 | 0.1859
x2 = 0.3921 | 0.1867
x2 = 0.3957 | 0.1869
x2 = 0.3994 | 0.1879
x2 = 0.4032 | 0.1888
x2 = 0.407 | 0.1898
x2 = 0.4109 | 0.1905
x2 = 0.4149 | 0.1914
x2 = 0.419 | 0.1924
x2 = 0.4232 | 0.1934
x2 = 0.4274 | 0.1943
x2 = 0.4317 | 0.195
x2 = 0.4361 | 0.196
x2 = 0.4406 | 0.1969
x2 = 0.4452 | 0.1977
x2 = 0.4499 | 0.1986
x2 = 0.4547 | 0.1993
x2 = 0.4596 | 0.2003
x2 = 0.4646 | 0.201
x2 = 0.4698 | 0.202
x2 = 0.475 | 0.2027
x2 = 0.4803 | 0.2034
x2 = 0.4858 | 0.2043
x2 = 0.4914 | 0.2051
x2 = 0.4971 | 0.2055
x2 = 0.503 | 0.2063
x2 = 0.509 | 0.207
x2 = 0.5151 | 0.2075
x2 = 0.5214 | 0.2079
x2 = 0.5219 | 0.2082
x2 = 0.5284 | 0.2087
x2 = 0.535 | 0.2091
x2 = 0.5418 | 0.2096
x2 = 0.5488 | 0.2098
x2 = 0.5559 | 0.2103
x2 = 0.5633 | 0.2103
x2 = 0.5708 | 0.2106
x2 = 0.5786 | 0.2106
x2 = 0.5865 | 0.2106
x2 = 0.5947 | 0.2106
x2 = 0.6031 | 0.2103
x2 = 0.6117 | 0.2101
x2 = 0.6206 | 0.2096
x2 = 0.6298 | 0.2089
x2 = 0.6392 | 0.2082
x2 = 0.649 | 0.2072
x2 = 0.659 | 0.206
x2 = 0.6693 | 0.2046
x2 = 0.68 | 0.2029
x2 = 0.691 | 0.201
x2 = 0.7024 | 0.1989
x2 = 0.7141 | 0.1965
x2 = 0.7263 | 0.1934
x2 = 0.7389 | 0.1902
x2 = 0.7519 | 0.1862
x2 = 0.7654 | 0.1819
x2 = 0.7793 | 0.1766
x2 = 0.7938 | 0.1709
x2 = 0.8089 | 0.1642
x2 = 0.8245 | 0.1568
x2 = 0.8408 | 0.1482
x2 = 0.8577 | 0.1377
x2 = 0.8753 | 0.1264
x2 = 0.8936 | 0.113
x2 = 0.9127 | 0.09728
x2 = 0.9327 | 0.0791
x2 = 0.9535 | 0.0574
x2 = 0.9753 | 0.0323
x2 = 0.9981 | 0.0012

Reference: the NIST ThermoML archive (doi:10.1021/je400184t)
